Assay results reported in paper PMC2892117 (Bioorganic & medicinal chemistry, 2010).
Structures can show the parent of a compound that is named as a salt.

Columns and labels:
T. b. r. STIB 900 = assay: STIB900 mouse model for acute African trypanosomiasis; format: in vivo; conditions: for responders at 5 mg/kg / responders at 25 mg/kg: Mus musculus, 1440 h, read-out: Cures; for Survival / Survival (days): average days of mice survival; for Cures: number of mice that survive and are parasite free for 60 days
[1] = system: Trypanosoma brucei rhodesiense STIB900; assay: microbe, parasite or virus in culture; conditions: RHODESIENSE|STIB900, read-out: T. b. r. IC50
Plasmodium falciparum K1 = assay: In vitro assay with P. f. K1 strain; format: cell-based; conditions: K1, read-out: P. f. IC50

SMILES | responders at 5 mg/kg (T. b. r. STIB 900; ip) | responders at 25 mg/kg (T. b. r. STIB 900; po) | Survival (T. b. r. STIB 900; po, 4 × 25 mg/kg) | also measured
Cl.Cl.N=C(N)c1ccc(-c2cnc(-c3ccc(C(=N)N)cc3)s2)cc1 [5a, 2,5-Bis(4-amidinophenyl)thiazole dihydrochloride] | 25% |  |  | Survival (T. b. r. STIB 900; ip, 4 × 5 mg/kg): >44.5 days; Cures (T. b. r. STIB 900; ip, 4 × 5 mg/kg, 5 mg/kg): 1 of four and one of four
N=C(N)c1ccc(-c2cnc(-c3ccc(C(=N)N)nc3)s2)cc1 [5b, 5-(4-Amidinophenyl)-2-(2-amidinopyridin-5-yl)thiazole dihydrochloride] | 0% |  |  | 
N=C(N)c1ccc(-c2cnc(-c3ccc(C(=N)N)cn3)s2)cc1 [5c, 5-(4-Amidinophenyl)-2-(3-amidinopyridin-6-yl)thiazole dihydrochloride] | 0% |  |  | 
Cl.Cl.N=C(N)c1ccc(-c2ncc(-c3ccc(C(=N)N)nc3)s2)cc1 [5d, 2-(4-Amidinophenyl)-5-(2-amidinopyridin-5-yl)thiazole dihydrochloride] | 0% |  |  | Survival (T. b. r. STIB 900; ip, 4 × 5 mg/kg): >36 days
Cl.Cl.N=C(N)c1ccc(-c2cnc(-c3ccc(C(=N)N)nc3)s2)cn1 [5e, 2,5-Bis(2-amidinopyridin-5-yl)thiazole dihydrochloride] | 0% |  |  | Survival (T. b. r. STIB 900; ip, 4 × 5 mg/kg): 50.5 days
N=C(N)c1ccc(-c2ncc(-c3ccc(C(=N)N)nc3)s2)nc1 [5f, 2-(3-Amidinopyridin-6-yl)-5-(2-amidinopyridin-5-yl)thiazole dihydrochloride] | 0% |  |  | 
Cl.Cl.N=C(N)c1ccc(-c2cnc(-c3ccc(C(=N)N)cn3)s2)nc1 [5g, 2,5-Bis-(3-amidinopyridin-6-yl)thiazole dihydrochloride] | 0% |  |  | Survival (T. b. r. STIB 900; ip, 4 × 5 mg/kg): 21.5 days
N/C(=N/O)c1ccc(-c2cnc(-c3ccc(/C(N)=N\O)cc3)s2)cc1 [6a, 2,5-Bis-(4-N-hydroxyamidinophenyl)thiazole dihydrochloride] |  | 0% |  | 
Cl.Cl.N/C(=N\O)c1ccc(-c2cnc(-c3ccc(/C(N)=N/O)nc3)s2)cc1 [6b, 5-(4-N-hydroxyamidinophenyl)-2(2-N-hydroxyamidinopyridin-5-yl)thiazole dihydrochloride] |  | 0% | 37.5 days | 
Cl.Cl.N/C(=N\O)c1ccc(-c2cnc(-c3ccc(/C(N)=N\O)cn3)s2)cc1 [6c, 5-(4-N-hydroxyamidinophenyl)-2-(3-N-hydroxyamidinopyridin-6-yl)thiazole dihydrochloride] |  | 0% | 24 days | 
Cl.Cl.N/C(=N\O)c1ccc(-c2ncc(-c3ccc(/C(N)=N\O)nc3)s2)cc1 [6d, 2-(4-N-hydroxyamidinophenyl)-5-(2-N-hydroxyamidinopyridin-5yl)thiazole dihydrochloride] |  | 0% | 36.75 days | 
Cl.Cl.N/C(=N\O)c1ccc(-c2cnc(-c3ccc(/C(N)=N\O)nc3)s2)cn1 [6e, 2,5-Bis-(2-N-hydroxyamidinopyridin-5-yl)thiazole dihydrochloride] |  | 25% | >37.5 days | 
Cl.Cl.N/C(=N\O)c1ccc(-c2cnc(-c3ccc(/C(N)=N\O)cn3)s2)nc1 [6g, 2,5-Bis(3-N-hydroxyamidinopyridin-6-yl)thiazole dihydrochloride] |  | 0% | 9 days | 
CO/N=C(/N)c1ccc(-c2cnc(-c3ccc(/C(N)=N\OC)cc3)s2)cc1.Cl.Cl [7a, 2,5-Bis-(4-N-methoxyamidinophenyl)thiazole dihydrochloride] |  | 0% | 41 days | 
CO/N=C(\N)c1ccc(-c2cnc(-c3ccc(/C(N)=N/OC)nc3)s2)cc1.Cl [7b, 5-(4-N-methoxyamidinophenyl)-2-(2-N-methoxyamidinopyridin-5-yl)thiazole dihydrochlodide] |  | 0% | 42.75 days | 
CO/N=C(\N)c1ccc(-c2cnc(-c3ccc(/C(N)=N\OC)cn3)s2)cc1.Cl.Cl [7c, 5-(4-N-methoxyamidinophenyl)-2-(3-N-methoxyamidinopyridin-6-yl)thiazole dihydrochloride] |  | 0% | 35 days | 
CO/N=C(\N)c1ccc(-c2cnc(-c3ccc(/C(N)=N\OC)nc3)s2)cn1.Cl.Cl [7e, 2,5-Bis(2-N-methoxyamidinopyridin-5-yl)thiazole dihydrochloride] |  | 25% | >47.25 days | 
CO/N=C(\N)c1ccc(-c2cnc(-c3ccc(/C(N)=N\OC)cn3)s2)nc1 [7g, 2,5-Bis(3-N-methoxyamidinopyridin-6-yl)thiazole dihydrochloride] |  | 0% |  | 
N=C(N)c1ccc(OCCCCCOc2ccc(C(=N)N)cc2)cc1 [I, pentamidine, reference compound] | 50% |  |  | 
N=C(N)c1ccc(-c2ccc(-c3ccc(C(=N)N)cc3)o2)cc1 [IIa, furamidine] |  |  |  | Survival (T. b. r. STIB 900; ip, 4 × 5 mg/kg): >46 days; IC50 [1]: 3.2 nM
CONC(=N)c1ccc(-c2ccc(-c3ccc(C(=N)NOC)cc3)o2)cc1 [IIb, Pafuramidine, reference compound] |  |  | > 60 days | Cures (T. b. r. STIB 900; po, 4 × 5 mg/kg): 0/4; Cures (T. b. r. STIB 900; po, 4 × 25 mg/kg): 4/4
N=C(N)c1ccc(-c2ccc(-c3ccc(C(=N)N)cn3)o2)cc1 [IIc, azafuramidine, reference compound] | 75% |  |  | IC50 (Plasmodium falciparum K1): 6.5 nM; Survival (T. b. r. STIB 900; ip, 4 × 5 mg/kg): >54.5 days; IC50 [1]: 7 nM
CO/N=C(\N)c1ccc(-c2ccc(-c3ccc(/C(N)=N/OC)cn3)o2)cc1 [IId, reference compound] |  |  |  | Survival (days) (T. b. r. STIB 900; po, 4 × 5 mg/kg): >60 >60 days; Cures (T. b. r. STIB 900; po, 4 × 5 mg/kg): 4/4 4/4; Survival (days) (T. b. r. STIB 900; po, 4 × 25 mg/kg): >60 >60 days; Cures (T. b. r. STIB 900; po, 4 × 25 mg/kg): 4/4 4/4
N=C(N)c1ccc(-c2ccc(-c3ccc(C(=N)N)cc3)s2)cc1 [IIe, reference compound] | 50% |  |  | Survival (T. b. r. STIB 900; ip, 4 × 5 mg/kg): >48.75 days
